Read-outs that look alike come from different tables or passages of the source.
Target: T1, F508delCFTR (Homo sapiens, UniProt P13569, DEL508-508)
T1 construct: expressed in transfected cells; host or cells: CFBE41o- human lung-derived epithelial cells (CFBE4lo-F508delCFTR-HRP), doxycycline-inducible
Experiment: Cell Surface Expression-Horse Radish Peroxidase (CSE-HRP) Assay;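 as to Maximum % activity (with co-corrector): co-corrector and positive control are both the same reference corrector at 2 µM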;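 as to Maximum % activity (without co-corrector): percent of the 2 µM on-plate positive control corrector response above DMSO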
Format: cell-based
Conditions: for Maximum % activity (with co-corrector) / Emax: maximum at any tested concentration, normalized to on-plate positive control; for Emax: read-out: Maximum % activity (without co-corrector)

[1] = CSE-HRP, test compound without co-corrector, read-out: EC50 (without co-corrector)
[2] = CSE-HRP, with co-corrector (2 μM of 3-[(2R,4R)-4-({[1-(2,2-difluoro-1,3-benzodioxol-5-yl)cyclopropyl]carbonyl}amino)-7-methoxy-3,4-dihydro-2H-chromen-2-yl]benzoic acid), read-out: EC50 (with co-corrector)
[3] = CSE-HRP, with co-corrector (2 μM)
[4] = test compound without co-corrector, read-out: EC50 (without co-corrector)
[5] = with co-corrector (2 μM of 3-[(2R,4R)-4-({[1-(2,2-difluoro-1,3-benzodioxol-5-yl)cyclopropyl]carbonyl}amino)-7-methoxy-3,4-dihydro-2H-chromen-2-yl]benzoic acid), read-out: EC50 (with co-corrector)
[6] = test compound without co-corrector
[7] = with co-corrector (2 μM of 3-[(2R,4R)-4-({[1-(2,2-difluoro-1,3-benzodioxol-5-yl)cyclopropyl]carbonyl}amino)-7-methoxy-3,4-dihydro-2H-chromen-2-yl]benzoic acid)

T1 sequence (P13569 with tags, fused parts or gaps DEL508-508): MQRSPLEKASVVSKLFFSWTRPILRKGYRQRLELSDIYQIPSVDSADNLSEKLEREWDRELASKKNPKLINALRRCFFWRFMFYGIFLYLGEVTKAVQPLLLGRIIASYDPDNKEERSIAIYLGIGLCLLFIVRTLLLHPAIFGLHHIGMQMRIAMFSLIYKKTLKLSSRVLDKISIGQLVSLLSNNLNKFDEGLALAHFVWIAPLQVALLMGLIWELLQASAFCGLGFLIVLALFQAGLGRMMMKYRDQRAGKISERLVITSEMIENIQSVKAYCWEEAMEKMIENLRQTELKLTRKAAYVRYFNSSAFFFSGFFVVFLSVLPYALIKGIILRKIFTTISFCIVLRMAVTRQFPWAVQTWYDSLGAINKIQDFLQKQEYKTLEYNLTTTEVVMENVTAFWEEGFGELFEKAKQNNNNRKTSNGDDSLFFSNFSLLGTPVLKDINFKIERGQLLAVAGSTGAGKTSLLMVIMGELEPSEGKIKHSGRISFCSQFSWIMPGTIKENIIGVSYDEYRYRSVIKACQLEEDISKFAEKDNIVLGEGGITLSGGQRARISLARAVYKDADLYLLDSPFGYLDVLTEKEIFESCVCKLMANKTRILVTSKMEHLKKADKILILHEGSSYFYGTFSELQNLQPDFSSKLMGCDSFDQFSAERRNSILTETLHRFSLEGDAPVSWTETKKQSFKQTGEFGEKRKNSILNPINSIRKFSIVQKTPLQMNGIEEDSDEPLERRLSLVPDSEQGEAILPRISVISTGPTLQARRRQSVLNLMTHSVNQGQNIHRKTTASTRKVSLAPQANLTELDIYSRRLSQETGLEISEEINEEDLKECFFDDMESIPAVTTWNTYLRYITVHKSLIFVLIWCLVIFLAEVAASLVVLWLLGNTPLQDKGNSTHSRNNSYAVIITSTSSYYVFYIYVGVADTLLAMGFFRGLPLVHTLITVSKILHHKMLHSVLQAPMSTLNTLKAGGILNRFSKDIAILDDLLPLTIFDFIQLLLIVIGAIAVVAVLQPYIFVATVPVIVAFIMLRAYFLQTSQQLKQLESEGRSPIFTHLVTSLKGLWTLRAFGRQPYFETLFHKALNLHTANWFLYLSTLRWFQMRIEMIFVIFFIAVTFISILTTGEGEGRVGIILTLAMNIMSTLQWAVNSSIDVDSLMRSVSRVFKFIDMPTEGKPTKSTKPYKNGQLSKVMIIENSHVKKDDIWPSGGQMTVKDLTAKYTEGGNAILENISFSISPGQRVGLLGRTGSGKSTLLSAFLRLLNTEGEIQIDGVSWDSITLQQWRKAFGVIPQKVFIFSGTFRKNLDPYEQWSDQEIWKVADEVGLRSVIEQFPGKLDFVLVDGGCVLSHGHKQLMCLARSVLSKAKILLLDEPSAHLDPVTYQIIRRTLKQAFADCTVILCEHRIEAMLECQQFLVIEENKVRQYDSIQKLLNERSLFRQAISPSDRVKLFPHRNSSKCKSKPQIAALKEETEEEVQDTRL

| Structure (SMILES) | EC50 [1] | EC50 [2] | Maximum % activity (with co-corrector) [3] | Emax (CSE-HRP, without co-corrector) | EC50 [4] | EC50 [5] | Maximum % activity (with co-corrector) (with co-corrector (2 μM)) | Emax (without co-corrector) | Emax [6] | Maximum % activity (with co-corrector) [7] |
| --- | --- | --- | --- | --- | --- | --- | --- | --- | --- | --- |
| COc1ccc(C(C)(C)C)cc1CN[C@H]1[C@H](C(C)(C)C)[C@@H](C(=O)O)N(C(=O)C2C3CCCC32)[C@H]1c1ccccc1 (stereo partly drawn) [Example 46, (2S,3S,4S,5S)-1-(bicyclo[3.1.0]hexane-6-carbonyl)-3-tert-butyl-4-{[(5-tert-butyl-2-methoxyphenyl)methyl]amino}-5-phenylpyrrolidine-2-carboxylic acid] |  |  |  |  | 1 to 10 µM | < 1 µM | +++ (≥350) | > 200% |  |  |
| COc1ccc(Cl)cc1CN[C@H]1[C@H](C(C)(C)C)[C@@H](C(=O)O)N(C(=O)C2CCCCC2)[C@H]1c1ncccc1OC (racemic) [Example I-40] |  |  |  |  | > 10 µM | > 10 µM | + (<150) | < 100% |  |  |
| COc1ccc(C(F)(F)F)cc1CN[C@H]1[C@H](C(C)(C)C)[C@@H](C(=O)O)N(C(=O)[C@@H]2CCCO2)[C@H]1c1cccnc1C1CC1 [Example I-269] | 1 to 10 µM | 1 to 10 µM | +++ (≥350) | 100 to 200% |  |  |  |  |  |  |
| COc1cc2ccccc2cc1CN[C@H]1[C@H](C(C)(C)C)[C@@H](C(=O)O)N(C(=O)C2CCCCC2)[C@H]1c1ccccc1 [Example I-42] |  |  |  |  | 1 to 10 µM | < 1 µM | +++ (≥350) | > 200% |  |  |

Next, values leading:

| EC50 [1] | EC50 [2] | Maximum % activity (with co-corrector) [3] | Emax (CSE-HRP, without co-corrector) | EC50 [4] | EC50 [5] | Maximum % activity (with co-corrector) (with co-corrector (2 μM)) | Emax (without co-corrector) | Emax [6] | Maximum % activity (with co-corrector) [7] | Structure (SMILES) |
| --- | --- | --- | --- | --- | --- | --- | --- | --- | --- | --- |
| 1 to 10 µM | 1 to 10 µM | ++ (≥150 and <350) | < 100% |  |  |  |  |  |  | Cc1cc(C(F)(F)F)cc(N[C@H]2[C@H](C(C)(C)C)[C@@H](C(=O)O)N(C(=O)C3CCCCC3)[C@H]2c2ccccn2)n1 (racemic) [II-53] |
|  |  |  |  | 1 to 10 µM | 1 to 10 µM |  |  | 100 to 200% | +++ (≥350) | COc1cc(C(F)(F)F)ccc1CN[C@H]1[C@H](C(C)(C)C)[C@@H](C(=O)O)N(C(=O)[C@@H]2CCCO2)[C@H]1c1cccnc1C1CC1 [II-587] |
| 1 to 10 µM | < 1 µM | +++ (≥350) | 100 to 200% |  |  |  |  |  |  | COc1ccc(C(C)(C)C)cc1CN[C@H]1[C@H](C(C)(C)C)[C@@H](C(=O)O)N(C(=O)Cc2cc(F)cc(F)c2)[C@H]1c1ccccc1 [II-200] |
|  |  |  |  | 1 to 10 µM | 1 to 10 µM |  |  | < 100% | ++ (≥150 and <350) | Cc1cc(C(F)(F)F)cc(N[C@@H]2[C@@H](C(C)(C)C)[C@H](C(=O)O)N(C(=O)C3CCCCC3)[C@@H]2c2cccnc2N(C)C)n1 (racemic) [III-46] |
|  |  |  |  | > 10 µM | 1 to 10 µM |  |  | < 100% | ++ (≥150 and <350) | CC(C)(C)[C@@H]1[C@@H](NCc2cccc(Cl)c2O)[C@@H](c2ccccc2)N(C(=O)C2CCCCC2)[C@H]1C(=O)O (racemic) [III-9] |
|  |  |  |  | 1 to 10 µM | 1 to 10 µM |  |  | 100 to 200% | +++ (≥350) | COc1ccc(C(C)(C)C)cc1CN[C@H]1[C@H](C(C)(C)C)[C@@H](C(=O)O)N(C(=O)[C@@H](OC)c2ccc(F)c(F)c2)[C@H]1c1ccccc1 [II-396] |
|  |  |  |  | > 10 µM | > 10 µM |  |  | < 100% | + (<150) | CO[C@@H](C(=O)N1[C@H](c2cccnc2N(C)C)[C@H](Nc2cc(C(F)(F)F)cc(C)n2)[C@@H](C(C)(C)C)[C@@H]1C(=O)O)c1ccccc1 (racemic) [III-89] |
| 1 to 10 µM | 1 to 10 µM | +++ (≥350) | 100 to 200% |  |  |  |  |  |  | COc1ccc(C(F)(F)F)cc1CN[C@H]1[C@H](C(C)(C)C)[C@@H](C(=O)O)N(C(=O)C2CCCCC2)[C@H]1c1cccnc1C [II-93] |
| 1 to 10 µM | 1 to 10 µM | +++ (≥350) | < 100% |  |  |  |  |  |  | COc1ccc(Br)c(CN[C@H]2[C@H](C(C)(C)C)[C@@H](C(=O)O)N(C(=O)C3CCCCC3)[C@H]2c2ccccc2)c1 [II-110] |
